Laboratory results published in patent US6379676B2, “Enhancing immune response in animals” (priority 1999, dated 2002).

Tested on: E. coli
Method: The term “resistant to contamination by pathogenic bacteria” means that a challenge with 1000 colony forming units (CFU) per gram of feed results in the death of substantially all the bacteria within 24 to 72 hours. In particular, the term “resistance to contamination by Salmonella or E. coli” means that a challenge with 1000 CFUs of Salmonella or E. coli per gram of feed results in 1 CFU or less per 25 grams of feed after 24 hours incubation at 25° C.
One set of samples was treated with a coarse spray (270 microns) at 1.8 gal/hr. (6.81 liters/hr.) and another was treated with fine mist (43 microns) at 25.5 gal/hr. (96.5 liters/hr.). Each sample of 500 grams was challenged with 20 ml of a liquid inoculum of Escherishia coli (>10^6 CFU/ml) one week after treatment.

`C=O` [formaldehyde] was tested, and the “time finished feed resists contamination by E. coli” value (2 lbs. (0.91 kg) dry wt. per metric ton, 2.0% CV, 1000 CFUs/gram of feed) was “about 60 days” and the “resistance as measured by challenge with E. coli” value (4 lbs. (1.81 kg) dry wt. per metric ton of finished feed, 7% CV, 1000 CFU/gram of feed) was “about 30 days”.
